Residue numbers refer to the chain shown, from its start. Entries after “also recorded” stand apart in the source; their conditions may differ.
What was measured:
[1] = target: T1, mutant (D57N)-mouse(m)RNR-α (Mus musculus, UniProt P07742, D57N); assay type: cell-based; conditions: 3 h treatment; 5, 50, 300 μM ClF, ClA, FlUMP; D57N-mRNR-α 3T3 cells
T1 sequence (P07742 1-792 D57N): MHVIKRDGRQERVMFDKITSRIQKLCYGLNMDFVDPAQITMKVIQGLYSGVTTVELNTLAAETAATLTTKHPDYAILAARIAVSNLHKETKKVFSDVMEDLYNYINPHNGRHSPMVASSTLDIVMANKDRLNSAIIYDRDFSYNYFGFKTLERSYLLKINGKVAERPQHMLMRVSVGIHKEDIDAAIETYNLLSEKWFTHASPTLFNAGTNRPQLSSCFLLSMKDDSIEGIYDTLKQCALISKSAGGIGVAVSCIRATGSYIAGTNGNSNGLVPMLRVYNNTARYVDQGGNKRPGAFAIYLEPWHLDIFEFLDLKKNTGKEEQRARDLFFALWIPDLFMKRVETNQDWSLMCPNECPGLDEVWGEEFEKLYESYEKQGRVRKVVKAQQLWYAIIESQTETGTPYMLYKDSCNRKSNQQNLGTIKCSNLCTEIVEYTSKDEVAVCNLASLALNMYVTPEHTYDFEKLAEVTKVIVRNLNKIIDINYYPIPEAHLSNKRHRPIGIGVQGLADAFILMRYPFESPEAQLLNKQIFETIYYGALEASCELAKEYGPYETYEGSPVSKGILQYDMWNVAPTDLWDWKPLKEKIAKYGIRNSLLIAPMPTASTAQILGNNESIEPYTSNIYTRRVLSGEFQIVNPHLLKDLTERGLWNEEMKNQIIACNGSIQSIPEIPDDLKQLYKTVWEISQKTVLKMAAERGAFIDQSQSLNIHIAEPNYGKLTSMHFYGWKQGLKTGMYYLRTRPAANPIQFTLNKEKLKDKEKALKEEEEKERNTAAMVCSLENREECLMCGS

[2] = test system: Flp-In 293 T-REx cells expressing RNR-α-Flag
[3] = test system: Flp-In 293 T-REx cells expressing D57N-α-Flag
RNR-α [4] = target: T2, RNR-α (Homo sapiens, UniProt P23921); test: RNR-α-specific CDP/ATP-reductase activity inhibition assay; assay type: biochemical
T2 sequence (P23921 1-792): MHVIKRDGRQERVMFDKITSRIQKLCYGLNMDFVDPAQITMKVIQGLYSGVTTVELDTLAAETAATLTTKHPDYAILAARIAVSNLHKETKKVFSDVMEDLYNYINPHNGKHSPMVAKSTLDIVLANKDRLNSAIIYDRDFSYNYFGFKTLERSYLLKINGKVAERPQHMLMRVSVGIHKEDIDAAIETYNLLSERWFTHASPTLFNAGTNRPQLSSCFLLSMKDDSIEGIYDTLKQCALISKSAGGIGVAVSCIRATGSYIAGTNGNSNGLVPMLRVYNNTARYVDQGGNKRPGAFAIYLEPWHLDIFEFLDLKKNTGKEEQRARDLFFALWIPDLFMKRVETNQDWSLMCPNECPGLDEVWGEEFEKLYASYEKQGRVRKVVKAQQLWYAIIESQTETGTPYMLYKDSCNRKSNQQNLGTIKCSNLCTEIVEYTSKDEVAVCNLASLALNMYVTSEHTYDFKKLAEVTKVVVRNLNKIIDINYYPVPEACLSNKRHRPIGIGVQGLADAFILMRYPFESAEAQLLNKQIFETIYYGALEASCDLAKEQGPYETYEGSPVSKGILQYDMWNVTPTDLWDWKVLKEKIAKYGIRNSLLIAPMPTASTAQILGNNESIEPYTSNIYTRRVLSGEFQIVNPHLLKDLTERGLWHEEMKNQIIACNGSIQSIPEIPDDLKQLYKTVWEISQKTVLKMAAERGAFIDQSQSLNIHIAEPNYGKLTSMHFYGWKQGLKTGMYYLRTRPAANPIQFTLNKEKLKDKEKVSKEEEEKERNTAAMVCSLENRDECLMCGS

D57N-human RNR-α mutant = target: T3, D57N-human RNR-α mutant (Homo sapiens, UniProt P23921, D57N); conditions: cited from earlier work
T3 sequence (P23921 1-792 D57N): T2 sequence (P23921 1-792) with D57N

E. coli RNR = conditions: cited from earlier work
RNR-α [5] = target: T2, RNR-α; conditions: cited from earlier work

Compound: Nc1nc(Cl)nc2c1ncn2[C@@H]1O[C@H](CO)[C@@H](O)[C@@H]1F [ClF, clofarabine]
- RNR reductase activity in D57N-α-expressing lines after drug treatment [1]: resistance
- effect of RNR-α overexpression on cytotoxicity relative to noninduced cells [2]: small effect on the EC50
- protection against cytotoxicity upon tet induction relative to noninduced [3]: > 20 fold

Compound: Nc1nc(Cl)nc2c1ncn2[C@@H]1O[C@H](COP(=O)(O)OP(=O)(O)O)[C@@H](O)[C@@H]1F [ClFDP, clofarabine diphosphate]
- higher affinity than ClADP and FlUDP (RNR-α [4]): 10–100 fold
- inhibition of D57N-α-specific RNR activity (D57N-human RNR-α mutant): can inhibit; also recorded: able to inhibit both wt- and D57N-α with similar potency
- inhibition of E. coli RNR (E. coli RNR): failed to inhibit

Compound: Nc1ccn([C@@H]2O[C@H](COP(=O)(O)OP(=O)(O)OP(=O)(O)O)[C@@H](O)C2(F)F)c(=O)n1 [F2CTP]
- effect on RNR-α oligomeric state or holoenzyme activity (RNR-α [5]): no effect
